Patent EP3636645A1, “PROCESS FOR THE PREPARATION OF SULFUR-SUBSTITUTED PYRIDINE DERIVATIVES” (Bayer Aktiengesellschaft, priority 2018, dated 2020)

Experiment: physchem
Type: physicochemical
Protocol: Die Bestimmung der logP-Werte erfolgte gemäß EEC Directive 79/831 Annex V.A8 durch HPLC (High Performance Liquid Chromatography) an einer Phasenumkehrsäule (C18) mit Hilfe folgender Methoden: Der logP[a] Wert wird durch LC-UV Messung im sauren Bereich bestimmt, mit 0,9 mL/L Ameisensäure in Wasser und 1,0 mL/L Ameisensäure in Acetonitril als Eluenten (linearer Gradient von 10% Acetonitrile bis 95% Acetonitril).
Der logP[n] Wert wird durch LC-UV Messung im neutralen Bereich bestimmt, mit 79 mg/L Ammoniumcarbonat in Wasser und Acetonitril als Eluenten (linearer Gradient von 10% Acetonitril bis 95% Acetonitril).
Die Kalibrierung wurde mit einer homologen Reihe geradkettiger Alkan-2-one (mit 3 bis 16 Kohlenstoffatomen) mit bekannten logP Werten durchgeführt. Die Werte zwischen aufeinanderfolgender Alkanone werden durch lineare Regression bestimmt.

chromatographic logP (hplc c18, acidic formic acid): 3 | chromatographic logP (hplc c18, ammonium carbonate): 2.97
SMILES: Cn1c(-c2ncccc2SC(F)(F)F)nc2cc(C(F)(F)F)ncc21 [Beispiel 1, 3-Methyl-6-(trifluormethyl)-2-{3-[(trifluormethyl)sulfanyl]pyridin-2-yl}-3H-imidazo [4,5-c] pyridin]
